# Measured values: patent US20240327433A1, “PYRIMIDOPYRAN COMPOUND” (Medshine Discovery Inc., priority 2021, published 2024)
# Structures can show the parent of a compound that is named as a salt.
# What was measured:
# p-ERK in AGS cells = test: Assay of p-ERK inhibition in AGS cells (HTRF); type: cell-based; conditions: Homo sapiens, 3 hours incubation
# Method: • 1) AGS cells were inoculated in a transparent 96-well cell culture plate, and each well contained […] of cell suspension and 10000 cells. The cell plate was inoculated in a carbon dioxide incubator at 37° C. overnight; • 2) After completion of the incubation, the cell supernatant was discarded. 80 μL of medium containing 0.02% serum was added to each well. The cell plate was incubated in a carbon dioxide incubator at 37° C. overnight; • 3) 2 μL of the compound was weighed and added to 78 μL of the cell medium. After the mixture was mixed thoroughly, 20 μL of the solution of compound was weighed and added to the corresponding well of the cell plate. The cell plate was placed back to the carbon dioxide incubator and incubated for another 3 hours; • 4) After completion of the incubation, the cell supernatant was discarded. 50 μL of 1× cell lysate was added to each well. […] The mixture was incubated at room temperature for at least 4 hours; • 7) After completion of the incubation, HTRF was read with multi-label analyzer: excitation: 320 nm, emission: 615 nm, 665 nm; • 8). IC50 of the compound to be assayed was calculated.
# KRAS^G12D AsPC-1 = test: Anti-cell proliferation effect in tumor cell line AsPC-1 (CellTiter-Glo 3D); type: cell-based; conditions: Homo sapiens, ASPC1, AsPC-1, 120 hours
# Method: In this assay, the effect of the compounds on inhibiting cell proliferation was studied by detecting the effect of the compounds on the cell activity in vitro in the tumor cell lines AsPC-1 and GP2D.
# The tumor cell lines were cultured in a 37° C., 5% CO2 incubator according to the culture conditions indicated in the culture method. Cells were passaged regularly, and cells in logarithmic growth phase were used for plating.
# Cells were stained with trypan blue and viable cells were counted.
# The cell concentration was adjusted to an appropriate concentration.
# To each well of a ULA culture plate was added 135 μL of cell suspension. To the blank control well was added the same volume of culture medium without cells.
# After plating, the ULA culture plate was immediately centrifuged at room temperature at 1000 rpm for 10 minutes. Note: After completion of the centrifugation, subsequent operations must be processed carefully to avoid unnecessary shocks.
# The culture plate was incubated in a 37° C., 5% CO2, 100% relative humidity incubator overnight.
# 10× compound working solution (10× working solution in DMSO) was formulated, and then to the ULA culture plate was add 15 μL of 10× compound working solution, and to the vehicle control and blank control was added 15 μL of DMSO-cell culture medium mixture, respectively. […]
# The luminescent signal was detected on a 2104 EnVision plate reader. […]
# [1] = Plasma protein binding (PPB), equilibrium dialysis, cynomolgus monkey plasma; type: in vitro ADME; conditions: 2 μM, unbound rate
# Method: (§1) The protein binding rates of the compound in the plasma of CD-1 mouse, Sprague-Dawley rat, Beagle dog, cynomolgus monkey and human were determined by equilibrium dialysis method.
# (§2) The plasmas of the above-mentioned five species were formulated to plasma samples with a compound concentration of 2 μM. The plasma samples were placed in a 96-well rapid equilibrium dialysis device, and dialyzed against phosphate buffered saline at 37±1° C. for 4 h. In this assay, warfarin was used as a control compound. The concentrations of analytes in plasma and dialysis buffer were determined by LC-MS/MS mothed.
# [2] = Plasma protein binding (PPB), equilibrium dialysis, Beagle dog plasma; type: in vitro ADME; conditions: 2 μM, unbound rate
# Method: as §1, §2
# [3] = Plasma protein binding (PPB), equilibrium dialysis, CD-1 mouse plasma; type: in vitro ADME; conditions: 2 μM, unbound rate
# Method: as §1, §2
# [4] = Pharmacokinetic study of oral and intravenously injected compounds in CD-1 mouse; type: in vivo
# Method: To assay the pharmacokinetics of oral and intravenously injected compounds in CD-1 mouse. The assay compound was mixed with 5% DMSO+95% (10% HP-β-CD) aqueous solution. The mixture was vortexed and sonicated to prepare a clear solution of 0.5 mg/mL (intravenous) or a clear solution of 3 mg/mL (oral). The clear solution was filtered by a microporous membrane for use. […] Whole blood was collected for a certain period of time, and prepared to obtain plasma. Drug concentration was analyzed by LC-MS/MS method, and pharmacokinetic parameters were calculated by Phoenix WinNonlin software (Pharsight, USA).
# [5] = male, CD-1, plasma, intravenous (IV), about 2 mg/kg
# [6] = male, CD-1, plasma, oral (PO), about 30 mg/kg
smiles,measurement,setting,value
Cc1cc(N)c(F)c(C2Cc3nc(OC[C@@]45CCCN4C[C@H](F)C5)nc(N4CC5CCC(C4)N5)c3CO2)c1C(F)(F)F (stereo partly shown) [Compound 1 hydrochloride],IC50,p-ERK in AGS cells,45 nM
same,IC50,KRAS^G12D AsPC-1,315 nM
same,Unbound PPB C,[1],6.3%
same,Unbound PPB D,[2],5.2%
same,Unbound PPB M,[3],2.7%
same,AUC(0-t),[4]; [5],0.353 µM·h
same,C0,[4]; [5],1400 nM
same,Vd,[4]; [5],148 L/kg
same,clearance,[4]; [5],106 mL/min/kg
same,half-life,[4]; [5],23.1 h
same,AUC(0-inf),[4]; [6],1.35 µM·h
same,Cmax,[4]; [6],228 nM
same,F,"[4]; oral (PO), about 30 mg/kg, oral bioavailability",25.5%
